± gives the standard deviation of the averaged measurements.

The experiment has as its system SW982. Kind of experiment: relative viability vs DMSO control (72 h) (fraction); higher = more viable cells. The procedure, abridged: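 Plates held 72 h at 37 °C and 5% CO2 contained sarcoma cell lines seeded in 384-well format to reach 80–90% confluence, plus 2.5 µl of serially diluted compound added after 24 h. Source plate concentrations ran from 10 mM to 0.0002 mM, with 0.1% DMSO as vehicle and a 5 µM positive control. Percent growth from ATPLite readings, averaged over up to triplicate wells, gave relative viability. Values were rescaled with 1 as full and 0 as none.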

Turning to `COc1c(OCCCN2CCOCC2)ccc2c1N=C(NC(=O)c1cnc(N)nc1)N1CCN=C21` [Copanlisib], the relative viability (0.00017 µM) was 1.04 ± 0.024; the relative viability (0.00051 µM) worked out at 1.02 ± 0.022; the relative viability (0.00152 µM) was found to be 1.04 ± 0.043; the relative viability (0.00457 µM) was 0.881 ± 0.016; the relative viability (0.01372 µM) turned out to be 0.797 ± 0.032; the relative viability (0.04115 µM) is 0.704 ± 0.029. Moreover, the relative viability amounted to 0.529 ± 0.01 (0.1235 µM); 0.391 ± 0.019 (0.3704 µM); 0.213 ± 0.011 (1.111 µM); 0.177 ± 0.0066 (3.333 µM); 0.177 ± 0.0061 (10 µM).
For `CN1CCN(c2ccc3nc(-c4c(N)c5c(F)cccc5[nH]c4=O)[nH]c3c2)CC1` [Dovitinib], the relative viability reads like this: (0.00017 µM) 1.02 ± 0.018; (0.00051 µM) 1.03 ± 0.041; (0.00152 µM) 1.01 ± 0.015; (0.00457 µM) 0.98 ± 0.027; (0.01372 µM) 1.01 ± 0.059; (0.04115 µM) 1.01 ± 0.059. The relative viability (0.1235 µM) was 0.94 ± 0.036; the relative viability (0.3704 µM) turned out to be 0.793 ± 0.012; the relative viability (1.111 µM) is 0.483 ± 0.015; the relative viability (3.333 µM) is 0.237 ± 0.022; the relative viability (10 µM) worked out at 0.0627 ± 0.033.
For the molecule `COCc1c(-c2cc3cc(C)cc(OC)c3s2)c2c(N)ncnn2c1CN1CCNC(=O)C1` [Rogaratinib], the relative viability was 1.05 ± 0.019 (0.00017 µM); 1.06 ± 0.028 (0.00051 µM); 1.07 ± 0.058 (0.00152 µM); 1.06 ± 0.012 (0.00457 µM); 1.06 ± 0.027 (0.01372 µM); 1.07 ± 0.028 (0.04115 µM). Also, the relative viability runs as follows: (0.1235 µM) 1.06 ± 0.065; (0.3704 µM) 1.06 ± 0.044; (1.111 µM) 0.996 ± 0.024; (3.333 µM) 0.728 ± 0.023; (10 µM) 0.362 ± 0.0075.
Regarding `CN1CCC(COc2cnc(-c3cccc(Cn4nc(-c5cccc(C#N)c5)ccc4=O)c3)nc2)CC1` [Tepotinib], the relative viability came out at 1.02 ± 0.025 (0.00017 µM); 1.07 ± 0.027 (0.00051 µM); 1.051 ± 0.0014 (0.00152 µM); 1.07 ± 0.029 (0.00457 µM); 1.04 ± 0.019 (0.01372 µM); 1.06 ± 0.019 (0.04115 µM). The same molecule had a relative viability (0.1235 µM) of 1.062 ± 0.0073; a relative viability (0.3704 µM) of 1.03 ± 0.035; a relative viability (1.111 µM) of 1.04 ± 0.059; a relative viability (3.333 µM) of 1.02 ± 0.027; a relative viability (10 µM) of 0.777 ± 0.025.

Values taken from the supplement of paper PMC10883282.
